Data on 5 compounds can be found in paper PMC7082753, “Hazards of Using Masking Protocols When Performing Ligand Binding Assays: Lessons From the Sigma-1 and Sigma-2 Receptors” (Frontiers in Pharmacology, 2020).

In assay [1] the target is sigma-1 receptor. Also noted: method as in Largent et al., 1987. As to conditions: ref Largent et al., 1987, cited from earlier work.
In assay [2] the target is sigma-2 receptor. As to conditions: PC12 cells, ref Hellewell and Bowen, 1990, cited from earlier work.
Assay [3] deals with T1, sigma-2 receptor (Homo sapiens, UniProt Q5BJF2). The assay can be described thus: [³H] DTG saturation binding to MCF7 membranes in absence or presence of (+) pentazocine. On the set-up: from sigma-2 receptors in membranes prepared from MCF7 cells; endogenous in cells; host or cells: MCF7 (ATCC HTB-22) cell membranes. As to the method:
(§1) Assays (total volume 100 μl) were performed at room temperature for 4 h with 1–300 nM [^3H] […] Assays were terminated by addition of ice-cold TBS and filtration through glass fibre filters (GF/C, Sigma-Aldrich, Poole, UK) using a cell harvester. Tubes and filter discs were washed with ice-cold TBS (2 x 3 ml) and the filter discs dried under vacuum. Scintillation counting was carried out in ProSafe FC+ cocktail after overnight incubation.

For assay [4], the system named is sigma sites. The settings on record: spinal cord; competition experiments; ref Kovacs and Larson, 1995; cited from earlier work.
Assay [5] deals with T2, sigma-1 receptor (Homo sapiens, UniProt Q99720).
T2 construct: sigma-1 receptors in membranes prepared from MDA-MB-468 cells; endogenous in cells; host or cells: MDA-MB-468 (ATCC HTB-132) cell membranes
The class given is binding. As to conditions: MDA-MB-468; two-site analysis. Here is the method: (§2) Competition binding assays (total volume 100 μl) were performed using a final assay concentration of 50 nM, 100 nM, or 1 µM [^3H] […] Alternatively, 10–30 nM [³H] […] The assay was then allowed to equilibrate at room temperature for 4 h. […] Tubes and filter discs were washed with ice-cold TBS (2 x 3 ml), and the filter discs dried under vacuum.

Assay [6] has as its system sigma-1 receptor. The assay can be described thus: Saturation binding of [³H] (+) pentazocine to MCF7 cell membranes. On the set-up: species or system human.
Description: MDA-MB-468 cells were maintained in DMEM, high glucose (41965-062) supplemented with 10% foetal calf serum. MCF7 cells were maintained in MEM (M2279) supplemented with 2 mM L-glutamine and 10% foetal calf serum. Cells were cultured at 37°C in a humidified incubator with 5% CO2. […] The supernatant was discarded and the pellet suspended in SBB.
Assays (total volume 100 µl) were performed using 0–300 nM [^3H] […] Non-specific binding was determined using 1 mM reduced haloperidol ([Schetz et al., 2007]). […] Assays were terminated by addition of ice-cold tris-buffered saline (TBS: 154 mM NaCl, 10 mM Tris, pH 7.4) and filtration through glass fibre filters (GF/B, Sigma-Aldrich, Poole, UK) using a cell harvester. Tubes and filter discs were washed (2 x 3 ml) with ice-cold TBS, and the filter discs dried under vacuum. Scintillation counting was carried out in ProSafe FC+ cocktail (Meridian Biotechnologies Ltd, Tadworth, UK) after overnight incubation.
Assay [7] has as its system sigma-1 receptor. The settings on record: not affected by GTP or suramin; ref Brimson et al., 2011; cited from earlier work.
The target in assay [8] is T1, sigma-2 receptor. Description: Two-site competition of (+) pentazocine with [³H] DTG in MDA-MB-468 membranes, low-affinity site. The settings on record: two-site analysis. The class given is binding. On the set-up: endogenous in cells. As to the method: as §2
For assay [9], the system named is sigma receptors. Description: Saturation binding of pan-sigma ligand [³H] DTG to MDA-MB-468 cell membranes. Also noted: species or system human. As to conditions: MDA-MB-468 membranes; n = 3. Here is the method:
as §1

In assay [10] the test system is residual binding sites for [³H] DTG in TMEM97 knock-out HeLa cells. As to conditions: cited from earlier work.
Assay [11] concerns the target sigma-1 receptor. On the set-up: method as in Hou et al., 2006; Zeng et al., 2019. As to conditions: ref Hou et al., 2006; Zeng et al., 2019; cited from earlier work.
Assay [12] concerns the target sigma-2 receptor. Also noted: method as in Hou et al., 2006; Zeng et al., 2019. The settings on record: ref Hou et al., 2006; Zeng et al., 2019; cited from earlier work.
For assay [13], the target named is sigma-1 receptor. As to conditions: ref Hellewell and Bowen, 1990; read-out: Ki (sigma-1 affinity); cited from earlier work.
Assay [14] addresses sigma-1 receptor. The assay can be described thus: Literature dextrallorphan competition against [³H] PPP (Largent et al.). The class given is binding. The settings on record: data of ref Largent et al., 1987.
Assay [15] relates to sigma-2 receptor. The assay can be described thus: Literature [³H] DTG and [³H] PPP binding in PC12 cells and affinity estimated from it. Also noted: species or system rat. The settings on record: for K30: 30 % displacement; for Ki: data of ref Hellewell and Bowen, 1990. From the text:
Calculations for saturation binding are based on non-linear analysis of idealised data.

Like-named read-outs stand apart in the source and are kept apart here.

T1 sequence (Q5BJF2 whole entry): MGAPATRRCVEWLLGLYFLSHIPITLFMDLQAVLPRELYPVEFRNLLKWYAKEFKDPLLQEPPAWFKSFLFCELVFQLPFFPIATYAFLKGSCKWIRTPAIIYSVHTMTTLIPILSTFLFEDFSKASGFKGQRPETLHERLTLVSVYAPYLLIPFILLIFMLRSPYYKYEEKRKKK
T2 sequence (Q99720 whole entry): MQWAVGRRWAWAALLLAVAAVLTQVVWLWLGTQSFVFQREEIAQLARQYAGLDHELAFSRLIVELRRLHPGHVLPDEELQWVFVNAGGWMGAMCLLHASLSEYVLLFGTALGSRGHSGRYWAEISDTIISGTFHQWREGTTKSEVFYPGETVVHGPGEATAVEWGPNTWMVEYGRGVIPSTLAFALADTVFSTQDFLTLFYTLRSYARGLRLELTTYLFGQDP

On to `CCCN1CCCC(c2cccc(O)c2)C1` (single isomer, unassigned; (+)) [PPP, (+)-3-(3-hydroxyphenyl)-N-(1-propyl)piperidine], for which the Kd in assay [1] (radioligand [³H] PPP) is 30 nM; in [2] (PPP), 86.3 nM.
For `CC(C)=CCN1CC[C@]2(C)c3cc(O)ccc3C[C@H]1[C@H]2C` [(+) pentazocine, (1S,9S,13S)-1,13-dimethyl-10-(3-methylbut-2-en-1-yl)-10-azatricyclotrideca-2,4,6-trien-4-ol], the “effect on Bmax of [³H] DTG” value in assay [3] (100 nM (+) pentazocine) was “did not affect”. For the same compound, the “effect on calculated Bmax of [³H] DTG” value in [3] (1 µM (+) pentazocine) is listed as “did not affect”. Moreover, the “[³H] DTG displaced with high affinity” value in assay [4] was 30%. For the same compound, the “% of sites with high affinity” value in [5] is 36%. The specific binding entry in assay [6] is “no specific binding”. Moreover, in assay [7], the Hill slope result is given as “unity”. The “% of sites with low affinity” value in assay [8] is on record as 64%. For the same compound, the “displacement of DTG and PPP binding” value in assay [2] is on record as “low-affinity”.
Consider `Cc1ccccc1NC(=N)Nc1ccccc1C` [DTG, 1,3-di-O-tolylguanidine], for which the pKd in assay [9] is 7.88 ± 0.01. For the same compound, the Kd in [10] (presence of 1 μM (+) pentazocine, ref Riad et al., 2018, Zeng et al., 2019, read-out: apparent Kd) is 300 to 400 nM.
Take `COc1cc2c(cc1OC)CN(CCCCNC(=O)c1cc(I)cc(OC)c1OC)CC2` [RHM-4]: in assay [10] (ref Zeng et al., 2019), the “detection of residual binding when used as radioligand” value is given as “unable to detect this residual binding”. Moreover, the Ki in [11] is 12900 nM; in assay [12], 8.2 nM.
Turning to `C=CCN1CC[C@@]23CCCC[C@@H]2[C@@H]1Cc1ccc(O)cc13` [dextrallorphan], the Ki in [13] was 16.1 nM; in assay [14] (Cheng-Prusoff correction of IC50 163 nM, read-out: Ki), 153 to 158 nM; in assay [14] (lowest calculated affinity, from Ki 153-158 nM, read-out: sigma-1 affinity used for modelling) it was 155 nM; in assay [15] (estimated from DTG data in PC12 cells), 44700 nM; in [15] (estimated from PPP data in PC12 cells) it was 15000 nM. In assay [1] (against 1-2 nM [³H] PPP), the IC50 is 163 nM. The K30 in assay [15] (calculated using DTG (5 nM, Kd […])) was 18.76 µM; in assay [15] (calculated using PPP (3 nM, Kd 86.3 nM)), 6.55 µM. In addition, in assay [2] (5 μM dextrallorphan), the “displacement of [³H] DTG or [³H] PPP” value was “less than 30%”.
